Data on two compounds can be found in patent publication US20070059788A1, “Method and apparatus for electrically detecting an adverse effect of a toxic substance on procaryotic cells” (priority 2005, published 2007).

Type in all cases: cell-based
In experiment [1] the test system is E. coli BL21 cells. Description: impedance (E′, E″) measurement of cells immobilized on an interdigit electrode chip.
Procedure: After a suspension of E. coli BL21 cells (1×10^10 ells) was mixed with 1 ml of 1.5% agarose, 1 ul of the resulting mixture was laid and immobilized on the surface of a positive dielectrophoresis (“DEP”) 0 chip.
Subsequently, the cells-immobilized chip was soaked in 10 ml of 1 μM KCl solution and its initial dielectric permittivity (E′) and dielectric losses (E″) were measured. […] The chip was then taken out of the 10 ml of 1 μM KCl solution and washed with 1 μM KCl solution three times. After soaking the chip in 10 ml of 1 μM KCl solution, dielectric permittivity (E′) and dielectric losses (E″) were measured.
Control 2 is a case of treating only 1 μM KCl solution to the chip immobilized with E. coli cells, which represents the noise of prokaryotic cells themselves that varies with the passage of time.
In FIGS. 2A to 2C, Line b represents an initial impedance value measured after the cell immobilization, and Line a represents an impedance value measured after treating with a toxic substance or 1 μM KCl solution.
Experiment [2] relates to E. coli BL21 cells. Briefly: optical detection of cell membrane potential (Baclight Bacterial Membrane Potential Kit). As for the experimental part: (§1) The optical detection method was performed using a Baclight™ Bacterial Membrane Potential Kit (commercially available from by Molecular Probes Inc., U.S.A.) for verification.
For experiment [3], the system named is E. coli BL21 cells. Description: colony counting of the cells-immobilized chip. As for the experimental part:
as §1

In the case of `CCO` [ethanol], in the experiment with E. coli BL21 cells [1] (20% ethanol (FIG. 2C)), the “reduction in the cell membrane's impedance (E′) signal” value is “about 36%”. Further, the “reduction in the cell membrane potential measured by the optical method” value with E. coli BL21 cells [2] (20% ethanol, compared with untreated control (FIG. 6)) was “almost nothing”. Also, in the experiment on E. coli BL21 cells [3] (20% ethanol), the “adverse effect by colony counting” value was “difficult to measure an adverse effect”.
With “carbonyl cyanide m-chloropheoxyhydrazone [CCCP]”, the “reduction of impedance signal (E″) of the cell membrane” value in the experiment with E. coli BL21 cells [1] (5 μM CCCP, compared with the untreated control (FIG. 4C)) was “about 32%”. In addition, the “change in E′ and E″ signals over the initial impedance value” with E. coli BL21 cells [1] (5 μM CCCP, same method as Example 1) was “significant reduction”. In addition, the “reduction of cell membrane potential” value with E. coli BL21 cells [2] (5 μM CCCP, compared with untreated control (FIG. 5B)) is 10%. Moreover, the “adverse effect by colony counting” value with E. coli BL21 cells [3] (5 μM CCCP versus untreated control (FIG. 5A)) was “difficult to measure an adverse effect”.
